What was measured:
human AKT1 = human AKT1 (Homo sapiens (Human), UniProt P31749); assay: AKT1 kinase activity inhibition (TR-FRET, biotinylated Crosstide substrate); format: biochemical; conditions: preincubation 120 min at 25° C.; ATP 150 μM; Crosstide 500 nM
Experimental: (§1) Preparation of AKT1 and AKT2 and measurement of in vitro inhibitory activity of the above-mentioned compounds against AKT1 and AKT2 kinase activity were carried out with reference to the method disclosed in Biochem. J. Vol. 385, pp 399-408 (2005). In the preparation of AKT1 and AKT2, human AKT1 and AKT2 to which a middle T antigen tag was added were expressed in Sf 9 insect cells, and then AKT1 and AKT2 were prepared following affinity purification and activation by PDK1. The prepared AKT1 and AKT2 were stored at −80° C. until the time of measurement of inhibitory activity of the compounds. In the measurement of inhibitory activity of the compounds, AKT1 or AKT2 and each compound of the present invention were preincubated at 25° C. for 120 minutes in a buffer solution for reaction (15 mM Tris-HCl pH 7.5, 0.01% Tween-20, 2 mM DTT). As a substrate, biotinylated Crosstide (bioton-KGSGSGRPRTSSFAEG), MgCl2, and ATP were added to final concentrations of 500 nM, 10 mM, and 150 μM, respectively, and reactions were carried out at 25° C. for 60 minutes. The reactions were stopped by adding EDTA to a final concentration of 80 mM. Then, a detection liquid in which an Eu-labeled anti-phosphorylation Crosstide antibody (PerkinElmer) and SureLight APC-SA (PerkinElmer) were contained at a final concentration of 0.5 nM and […], respectively, was added, and reactions were carried out at room temperature for 2 hours. Finally, the amount of fluorescence at the time of irradiation of excitation light having a wavelength of 337 nm was measured at dual wavelengths of 620 nm and 665 nm by PHERAstar FS (BMG LABTECH). The amount of phosphorylation was determined from the ratio of the fluorescence amounts at the dual wavelengths. The compound concentration at which phosphorylation can be inhibited by 50% was defined as […] (nM), and the results are shown in Table 4 below.

human AKT2 = human AKT2 (Homo sapiens (Human), UniProt P31751); assay: AKT2 kinase activity inhibition (TR-FRET, biotinylated Crosstide substrate); format: biochemical; conditions: preincubation 120 min at 25° C.; ATP 150 μM; Crosstide 500 nM
Experimental: as §1

Chain of human AKT1 (P31749 whole entry): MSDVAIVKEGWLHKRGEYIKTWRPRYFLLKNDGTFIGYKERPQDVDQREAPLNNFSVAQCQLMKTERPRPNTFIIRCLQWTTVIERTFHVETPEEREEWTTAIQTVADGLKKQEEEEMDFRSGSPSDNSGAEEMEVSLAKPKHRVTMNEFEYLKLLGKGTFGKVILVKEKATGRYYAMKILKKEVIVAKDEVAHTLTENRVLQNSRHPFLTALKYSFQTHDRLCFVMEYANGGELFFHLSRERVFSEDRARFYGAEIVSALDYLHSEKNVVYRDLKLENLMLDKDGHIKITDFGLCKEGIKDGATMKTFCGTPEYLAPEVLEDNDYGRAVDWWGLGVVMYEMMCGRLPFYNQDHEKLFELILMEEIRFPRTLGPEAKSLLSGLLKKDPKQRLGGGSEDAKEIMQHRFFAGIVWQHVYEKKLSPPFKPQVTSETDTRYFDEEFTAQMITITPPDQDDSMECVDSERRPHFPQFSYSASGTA
Chain of human AKT2 (P31751 whole entry): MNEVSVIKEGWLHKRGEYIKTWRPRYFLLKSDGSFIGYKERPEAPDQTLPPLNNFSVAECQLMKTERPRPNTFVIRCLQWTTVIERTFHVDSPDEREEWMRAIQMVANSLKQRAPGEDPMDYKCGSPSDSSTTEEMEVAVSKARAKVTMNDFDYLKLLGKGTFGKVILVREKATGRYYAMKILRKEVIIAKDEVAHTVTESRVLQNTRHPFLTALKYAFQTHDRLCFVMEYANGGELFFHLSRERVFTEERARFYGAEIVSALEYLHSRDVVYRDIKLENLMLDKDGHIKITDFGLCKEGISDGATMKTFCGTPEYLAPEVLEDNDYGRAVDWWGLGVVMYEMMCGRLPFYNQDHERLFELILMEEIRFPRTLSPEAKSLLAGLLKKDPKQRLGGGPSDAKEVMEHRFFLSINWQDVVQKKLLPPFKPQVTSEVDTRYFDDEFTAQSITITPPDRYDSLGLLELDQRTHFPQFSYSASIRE

CC1(O)CC(N)(c2ccc(-c3nc4n(c3-c3ccccc3)COc3cccc(F)c3-4)cc2)C1 (stereo not drawn) [Example 2, trans-3-amino-3-(4-(10-fluoro-3-phenyl-5H-benzo[e]imidazo[1,2-c][1,3]oxazin-2-yl)phenyl)-1-methylcyclobutanol]
IC50 (human AKT1): 4.6 nM | IC50 (human AKT2): 0.5 nM

NC1(c2ccc(-c3nc4n(c3-c3ccccc3)COc3cccc(F)c3-4)cc2)CCC1 [Example 3, 1-(4-(10-fluoro-3-phenyl-5H-benzo[e]imidazo[1,2-c][1, 3]oxazin-2-yl)phenyl)cyclobutanamine]
IC50 (human AKT1): 16 nM | IC50 (human AKT2): 1.2 nM

NC1(c2ccc(-c3nc4n(c3-c3ccsc3)COc3cccc(F)c3-4)cc2)CC(O)(C2CC2)C1 (stereo not drawn) [Example 4, trans-3-amino-1-cyclopropyl-3-(4-(10-fluoro-3-(thiophen-3-yl)-5H-benzo[e]imidazo[1,2-c][1,3]oxazin-2-yl)phenyl)cyclobutanol]
IC50 (human AKT1): 7.1 nM | IC50 (human AKT2): 0.71 nM

CC1(O)CC(N)(c2ccc(-c3nc4n(c3-c3ccsc3)COc3cccc(F)c3-4)cc2)C1 (stereo not drawn) [Example 6, trans-3-amino-3-(4-(10-fluoro-3-(thiophen-3-yl)-5H-benzo[e]imidazo[1,2-c][1,3]oxazin-2-yl)phenyl)-1-methylcyclobutanol]
IC50 (human AKT1): 9.8 nM | IC50 (human AKT2): 0.91 nM

CC1(O)CC(N)(c2ccc(-c3nc4n(c3-c3ccncc3)COc3cccc(F)c3-4)cc2)C1 (stereo not drawn) [Example 7, trans-3-amino-3-(4-(10-fluoro-3-(pyridin-4-yl)-5H-benzo[e]imidazo[1,2-c][1,3]oxazin-2-yl)phenyl)-1-methylcyclobutanol]
IC50 (human AKT1): 25 nM | IC50 (human AKT2): 1.1 nM

CC1(O)CC(N)(c2ccc(-c3nc4n(c3-c3ccccc3)COc3ccc(F)cc3-4)cc2)C1 (stereo not drawn) [Example 8, trans-3-amino-3-(4-(9-fluoro-3-phenyl-5H-benzo[e]imidazo[1,2-c][1,3]oxazin-2-yl)phenyl)-1-methylcyclobutanol]
IC50 (human AKT1): 6.4 nM | IC50 (human AKT2): 1 nM

C[C@]1(O)C[C@@](N)(c2ccc(-c3nc4n(c3-c3ccccc3)COc3cc(F)ccc3-4)cc2)C1 [Example 9, trans-3-amino-3-(4-(8-fluoro-3-phenyl-5H-benzo[e]imidazo[1,2-c][1,3]oxazin-2-yl)phenyl)-1-methylcyclobutanol]
IC50 (human AKT1): 8.5 nM | IC50 (human AKT2): 2 nM

NC1(c2ccc(-c3nc4n(c3-c3ccccc3)COc3c(F)cccc3-4)cc2)CC(O)(C2CC2)C1 (stereo not drawn) [Example 10, trans-3-amino-1-cyclopropyl-3-(4-(7-fluoro-3-phenyl-5H-benzo[e]imidazo[1,2-c][1,3]oxazin-2-yl)phenyl)cyclobutanol]
IC50 (human AKT1): 2.3 nM | IC50 (human AKT2): 1.4 nM

C[C@]1(O)C[C@@](N)(c2ccc(-c3nc4n(c3-c3ccccc3)COc3ccccc3-4)cc2)C1 [Example 12, trans-3-amino-1-methyl-3-(4-(3-phenyl-5H-benzo[e]imidazo[1,2-c][1,3]oxazin-2-yl)phenyl)cyclobutanol]
IC50 (human AKT1): 5.3 nM | IC50 (human AKT2): 1.7 nM

NC1(c2ccc(-c3nc4n(c3-c3ccccc3)COc3ccccc3-4)cc2)CCC1 [Example 13, 1-(4-(3-phenyl-5H-benzo[e]imidazo[1,2-c][1,3]oxazin-2-yl)phenyl)cyclobutanamine]
IC50 (human AKT1): 13 nM | IC50 (human AKT2): 2.8 nM

NC1(c2ccc(-c3nc4n(c3-c3ccsc3)COc3ccccc3-4)cc2)CCC1 [Example 14, 1-(4-(3-(thiophen-3-yl)-5H-benzo[e]imidazo[1,2-c][1,3]oxazin-2-yl)phenyl)cyclobutanamine]
IC50 (human AKT1): 27 nM | IC50 (human AKT2): 5.4 nM

NC1(c2ccc(-c3nc4n(c3-c3ccncc3)COc3ccccc3-4)cc2)CCC1 [Example 15, 1-(4-(3-(pyridin-4-yl)-5H-benzo[e]imidazo[1,2-c][1,3]oxazin-2-yl)phenyl)cyclobutanamine]
IC50 (human AKT1): 51 nM | IC50 (human AKT2): 6.5 nM

COc1cccc2c1OCn1c-2nc(-c2ccc([C@]3(N)C[C@@](O)(C4CC4)C3)cc2)c1-c1ccccc1 [Example 19, trans-3-amino-1-cyclopropyl-3-(4-(7-methoxy-3-phenyl-5H-benzo[e]imidazo[1,2-c][1,3]oxazin-2-yl)phenyl)cyclobutanol]
IC50 (human AKT1): 16 nM | IC50 (human AKT2): 2 nM

COc1ccc2c(c1)-c1nc(-c3ccc(C4(N)CC(C)(O)C4)cc3)c(-c3ccccc3)n1CO2 (stereo not drawn) [Example 20, trans-3-amino-3-(4-(9-methoxy-3-phenyl-5H-benzo[e]imidazo[1,2-c][1,3]oxazin-2-yl)phenyl)-1-methylcyclobutanol]
IC50 (human AKT1): 2.9 nM | IC50 (human AKT2): 0.75 nM

COc1ccc2c(c1)OCn1c-2nc(-c2ccc(C3(N)CC(C)(O)C3)cc2)c1-c1ccccc1 (stereo not drawn) [Example 21, trans-3-amino-3-(4-(8-methoxy-3-phenyl-5H-benzo[e]imidazo[1,2-c][1,3]oxazin-2-yl)phenyl)-1-methylcyclobutanol]
IC50 (human AKT1): 6 nM | IC50 (human AKT2): 0.91 nM

NC1(c2ccc(-c3nc4n(c3-c3ccccc3)COc3cccc(Cl)c3-4)cc2)CC(O)(C2CC2)C1 (stereo not drawn) [Example 22, trans-3-amino-3-(4-(10-chloro-3-phenyl-5H-benzo[e]imidazo[1,2-c][1,3]oxazin-2-yl)phenyl)-1-cyclopropylcyclobutanol]
IC50 (human AKT1): 8.2 nM | IC50 (human AKT2): 0.3 nM

CCOc1cccc2c1-c1nc(-c3ccc(C4(N)CC(O)(C5CC5)C4)cc3)c(-c3ccccc3)n1CO2 (stereo not drawn) [Example 23, trans-3-amino-1-cyclopropyl-3-(4-(10-ethoxy-3-phenyl-5H-benzo[e]imidazo[1,2-c][1,3]oxazin-2-yl)phenyl)cyclobutanol]
IC50 (human AKT1): 28 nM | IC50 (human AKT2): 1.7 nM

CCOc1cccc2c1-c1nc(-c3ccc(C4(N)CC(C)(O)C4)cc3)c(-c3ccccc3)n1CO2 (stereo not drawn) [Example 24, trans-3-amino-3-(4-(10-ethoxy-3-phenyl-5H-benzo[e]imidazo[1,2-c][1,3]oxazin-2-yl)phenyl)-1-methylcyclobutanol]
IC50 (human AKT1): 30 nM | IC50 (human AKT2): 1.8 nM

COc1cc(OC)c2c(c1)OCn1c-2nc(-c2ccc(C3(N)CC(O)(C4CC4)C3)cc2)c1-c1ccccc1 (stereo not drawn) [Example 25, trans-3-amino-1-cyclopropyl-3-(4-(8,10-dimethoxy-3-phenyl-5H-benzo[e]imidazo[1,2-c][1,3]oxazin-2-yl)phenyl)cyclobutanol]
IC50 (human AKT1): 12 nM | IC50 (human AKT2): 0.27 nM

Cc1cccc2c1OCn1c-2nc(-c2ccc([C@]3(N)C[C@@](O)(C4CC4)C3)cc2)c1-c1ccccc1 [Example 26, trans-3-amino-1-cyclopropyl-3-(4-(7-methyl-3-phenyl-5H-benzo[e]imidazo[1,2-c][1,3]oxazin-2-yl)phenyl)cyclobutanol]
IC50 (human AKT1): 26 nM | IC50 (human AKT2): 1.5 nM

NC1(c2ccc(-c3nc4n(c3-c3ccccc3)COc3cccnc3-4)cc2)CCC1 [Example 29, 1-(4-(3-phenyl-5H-imidazo[1,2-c]pyrido[2,3-e][1,3]oxazin-2-yl)phenyl)cyclobutanamine]
IC50 (human AKT1): 35 nM | IC50 (human AKT2): 4 nM

NC1(c2ccc(-c3nc4n(c3-c3ccccc3)COc3ccncc3-4)cc2)CCC1 [Example 33, 1-(4-(3-phenyl-5H-imidazo[1,2-c]pyrido[3,4-e][1,3]oxazin-2-yl)phenyl)cyclobutanamine]
IC50 (human AKT1): 14 nM | IC50 (human AKT2): 1.7 nM

CC[C@]1(O)C[C@@](N)(c2ccc(-c3nc4n(c3-c3ccccc3)COc3ccncc3-4)cc2)C1 [Example 34, trans-3-amino-1-ethyl-3-(4-(3-phenyl-5H-imidazo[1,2-c]pyrido[3,4-e][1,3]oxazin-2-yl)phenyl)cyclobutanol]
IC50 (human AKT1): 12 nM | IC50 (human AKT2): 2.1 nM
